Measured values as given in US8481497B2, “Therapeutic agent for cancer, and method for treatment of cancer” (Sapporo Medical University, priority 2007, dated 2013).

B1: interferon-gamma: type II interferon, a cytokine (protein, UniProt P01579 24-161, looked up)
Interferon gamma: QDPYVKEAENLKKYFNAGHSDVADNGTLFLGILKNWKEESDRKIMQSQIVSFYFKLFKNFKDDQSIQKSVETIKEDMNVKFFNSNKKKRDDFEKLTNYSVTDLNVQRKAIHELIQVMAELSPAAKTGKRKRSQMLFRG

How the values were obtained:
FGFR1 in KMS12BM cells = assay: FGFR1 expression at mRNA level in multiple myeloma cell line by DNA array; type: cell-based; settings: 1 micro M decitabine (72 hours) and/or 0.5 micro g/mL ADR (24 hours)
Description: Using a DNA array, 1 micro M decitabine and/or 0.5 micro g/mL ADR was administered to KMS12BM cells and a change in expression of FGFR1 at the mRNA level was examined 72 hours after administration of decitabine and 24 hours after administration of ADR. In the graph, the expression level ratio relative to the expression level in the cell line to which no drug was administered is shown on the vertical axis. In the graph, the decitabine administration group is shown by Aza.

FGFR1 = settings: human hepatic stellate cells; cited from earlier work

| Molecule | expression level of FGFR1 at the mRNA level (FGFR1 in KMS12BM cells) | expression of FGFR1 (FGFR1) |
| --- | --- | --- |
| COc1cccc2c1C(=O)c1c(O)c3c(c(O)c1C2=O)C[C@@](O)(C(=O)CO)C[C@@H]3O[C@H]1C[C@H](N)[C@H](O)[C@H](C)O1 [ADR, adriamycin] | increased |  |
| B1 |  | reduces |
